Data as given in patent publication US7326689B2, “Pseudomycins useful against plant diseases” (Eli Lilly and Company, priority 2000, dated 2008).

Tests used:
Assay in all cases: Antifungal growth assay in potato dextrose broth, 24-well
Format in all cases: cell-based
Design in all cases: key: NI, no inhibition; p (partial), at least 50% inhibited
Phytophthora cinnemani = tested on: Phytophthora cinnemani
Procedure, shortened: (§1)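 Minimum no-growth concentration (ug/ml) was scored in PDB after 2 days and again after 5 days. Slow-growing fungi were read on later days, and partial meant ≥50% inhibition. Test range was 50–1.56 ug/ml final, or 2–0.0625 ug/ml in repeats.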

Phyllosticta maydis = tested on: Phyllosticta maydis
Procedure, shortened: as §1

Phytophthora ultimum = tested on: Phytophthora ultimum
Procedure, shortened: as §1

Fusarium avenaceum = tested on: Fusarium avenaceum
Procedure, shortened: as §1

Tapesia acuformis = details: 2x assays
Procedure, shortened: as §1

Tapesia yallundae = details: 2x assays
Procedure, shortened: as §1

Diplodia natalensis = tested on: Diplodia natalensis
Procedure, shortened: as §1

Aphanomyces sp. = details: 2x assays
Procedure, shortened: as §1

Phytophthora parasitica = tested on: Phytophthora parasitica
Procedure, shortened: as §1

Botrytis alli = details: 2x assays
Procedure, shortened: as §1

Cochliobolus carbonum = tested on: Cochliobolus carbonum
Procedure, shortened: as §1

Sclerotinia sclerotiorum = details: 2x assays
Procedure, shortened: as §1

Fusarium solani = tested on: Fusarium solani
Procedure, shortened: as §1

Pseudomycin C′
lowest level of compound that results in no growth (Phytophthora cinnemani; five day results): NI
lowest level of compound that results in no growth (Phytophthora cinnemani; two day results): NI
lowest level of compound that results in no growth (Phyllosticta maydis; five day results): NI
lowest level of compound that results in no growth (Phyllosticta maydis; two day results): p at 50
lowest level of compound that results in no growth (Phytophthora ultimum; five day results): NI
lowest level of compound that results in no growth (Phytophthora ultimum; two day results): NI
lowest level of compound that results in no growth (Fusarium avenaceum; five day results): NI
lowest level of compound that results in no growth (Fusarium avenaceum; two day results): NI
lowest level of compound that results in no growth (Tapesia acuformis; five day results): NI
lowest level of compound that results in no growth (Tapesia acuformis; two day results): NI
lowest level of compound that results in no growth (Tapesia yallundae; five day results): NI
lowest level of compound that results in no growth (Tapesia yallundae; two day results): 6.25 µg/mL
lowest level of compound that results in no growth (Diplodia natalensis; five day results): NI
lowest level of compound that results in no growth (Diplodia natalensis; two day results): NI
lowest level of compound that results in no growth (Aphanomyces sp.; five day results): p at 50
lowest level of compound that results in no growth (Aphanomyces sp.; two day results): 25 µg/mL
lowest level of compound that results in no growth (Phytophthora parasitica; five day results): NI
lowest level of compound that results in no growth (Phytophthora parasitica; two day results): NI
lowest level of compound that results in no growth (Botrytis alli; five day results): NI
lowest level of compound that results in no growth (Botrytis alli; two day results): NI
lowest level of compound that results in no growth (Cochliobolus carbonum; five day results): NI
lowest level of compound that results in no growth (Cochliobolus carbonum; two day results): NI
lowest level of compound that results in no growth (Sclerotinia sclerotiorum; five day results): p at 50
lowest level of compound that results in no growth (Sclerotinia sclerotiorum; two day results): 50 µg/mL
lowest level of compound that results in no growth (Fusarium solani; five day results): NI
lowest level of compound that results in no growth (Fusarium solani; two day results): NI
